We go through 7 molecules from article PMC3509527, “Leucettamols, Bifunctionalized Marine Sphingoids, Act as Modulators of TRPA1 and TRPM8 Channels” (Marine Drugs, 2012).

What all share (type): cell-based
The target in one test is T1, rat TRPM8 channel (Rattus norvegicus, UniProt Q8R455).
T1 construct: expressed in transfected cells; host or cells: HEK-293
Description: Inhibition of icilin-induced [Ca2+]i elevation in TRPM8-HEK-293 cells. The following applies: 5-min preincubation, against icilin 0.25 μM. As for the experimental part: (§1) Assays of TRP-mediated elevation of intracellular [Ca^2+] were performed as previously described. In the current study we have used wild-type HEK293 cells, cells stably expressing rat TRPA1 or human TRPV1 or rat TRPM8. HEK-293 cells stably over-expressing recombinant rat TRPA1, rat TRPM8 or human TRPV1 were selected by G-418 (Geneticin; 600 μg·mL^−1), grown on 100 mm diameter Petri dishes as monolayers in minimum essential medium supplemented with non-essential amino acids, 10% fetal bovine serum and 2 mM glutamine, and maintained under 5% CO2 at 37 °C. Stable expression of each channel was confirmed by real time quantitative PCR (not shown). On the day of the experiment, the cells were loaded for 1 h at 25 °C with the cytoplasmic calcium indicator Fluo-4AM (Invitrogen Carlsbad, CA, USA) 4 μM in DMSO containing 0.02% Pluronic F-127 (Invitrogen, Carlsbad, CA, USA). After loading, cells were washed twice in Tyrode’s buffer (145 mM NaCl, 2.5 mM KCl, 1.5 mM CaCl2, 1.2 mM MgCl2, 10 mM D-glucose and 10 mM HEPES, pH 7.4), re-suspended in the same buffer, and transferred to the quartz cuvette of the spectrofluorimeter (λex = 488 nm; λem = 516 nm) (Perkin-Elmer LS50B equipped with PTP-1 Fluorescence Peltier System; Perkin-Elmer Life and Analytical Sciences, Waltham, MA, USA) under continuous stirring. About 100,000 cells were used for each data point. Experiments were carried out at 22 °C by measuring cell fluorescence before and after the addition of various concentrations of test compounds. The values of the effect on [Ca^2+]i in wild-type (i.e., not transfected with any construct) HEK-293 cells were taken as baselines and subtracted from the values obtained from transfected cells. The potency of test compounds (EC50 values) was determined as the concentration of test substances required to produce half-maximal increases in [Ca^2+]i. The efficacy of the agonists on TRPA1 is expressed as a percentage of the effect obtained with 100 μM allylisothiocyanate (AITC). Antagonist/desensitizing behaviour was evaluated against icilin (0.25 μM) for TRPM8 and AITC (100 μM) for TRPA1 by adding the compounds in the quartz cuvette 5 min before stimulation of cells with agonists. Data are expressed as the concentration exerting a half-maximal inhibition of agonist effect (IC50). All determinations were at least performed in triplicate. Dose-response curves were fitted by a sigmoidal regression with variable slope. Curve fitting and parameter estimation were performed with GraphPad Prism (GraphPad Software Inc., San Diego, CA, USA).

Test [1] concerns the target T2, rat TRPA1 channel (Rattus norvegicus, UniProt Q6RI86).
T2 construct: expressed in transfected cells; host or cells: HEK-293
Put plainly: TRPA1 activation, fluorometric intracellular [Ca2+]i in TRPA1-HEK293 cells. Conditions: for Efficacy TRPA1 (% AITC 100 μM) / EC50: rat TRPA1-HEK293 cells; for EC50: read-out: Potency EC50 TRPA1. As for the experimental part: as §1, with “Stable expression of each channel was confirmed by real time quantitative PCR (not shown).” left out

Test [2] concerns the target T2, rat TRPA1 channel. Description: TRPA1 desensitization/inhibition of AITC-induced [Ca2+]i elevation in TRPA1-HEK-293 cells. Conditions: 5-min preincubation, against AITC 100 μM. As for the experimental part:
as §1, with “Stable expression of each channel was confirmed by real time quantitative PCR (not shown).” left out

For test [3], the target named is T3, human recombinant TRPV1 channel (Homo sapiens, UniProt Q8NER1).
T3 construct: expressed in transfected cells; host or cells: HEK-293
T3 sequence (Q8NER1 whole entry): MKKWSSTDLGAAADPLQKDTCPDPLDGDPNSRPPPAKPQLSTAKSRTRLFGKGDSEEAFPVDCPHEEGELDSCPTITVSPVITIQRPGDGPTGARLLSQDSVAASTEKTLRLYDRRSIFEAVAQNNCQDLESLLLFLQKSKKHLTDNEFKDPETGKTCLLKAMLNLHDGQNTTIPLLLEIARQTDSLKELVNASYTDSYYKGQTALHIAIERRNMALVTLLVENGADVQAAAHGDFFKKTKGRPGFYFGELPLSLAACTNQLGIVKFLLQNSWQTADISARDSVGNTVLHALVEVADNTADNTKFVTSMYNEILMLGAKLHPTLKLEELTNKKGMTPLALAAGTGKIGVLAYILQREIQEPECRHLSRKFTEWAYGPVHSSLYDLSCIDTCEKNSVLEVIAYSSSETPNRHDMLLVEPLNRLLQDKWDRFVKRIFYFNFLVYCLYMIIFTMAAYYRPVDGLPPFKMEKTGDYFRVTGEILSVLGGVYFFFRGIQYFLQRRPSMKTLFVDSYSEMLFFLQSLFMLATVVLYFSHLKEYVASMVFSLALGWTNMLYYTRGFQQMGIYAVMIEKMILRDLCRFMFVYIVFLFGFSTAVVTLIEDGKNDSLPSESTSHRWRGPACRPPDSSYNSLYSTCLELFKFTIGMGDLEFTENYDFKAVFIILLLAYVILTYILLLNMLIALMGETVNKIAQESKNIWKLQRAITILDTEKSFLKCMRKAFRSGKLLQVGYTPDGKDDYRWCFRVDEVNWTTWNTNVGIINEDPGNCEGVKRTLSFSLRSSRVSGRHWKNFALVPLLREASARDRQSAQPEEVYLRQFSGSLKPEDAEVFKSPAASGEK
Put plainly: Elevation of intracellular Ca2+ in HEK-293 cells stably transfected with TRPV1. The following applies: at 10 μM. As for the experimental part: Assays of TRP-mediated elevation of intracellular [Ca^2+] were performed as previously described. In the current study we have used wild-type HEK293 cells, cells stably expressing rat TRPA1 or human TRPV1 or rat TRPM8. HEK-293 cells stably over-expressing recombinant rat TRPA1, rat TRPM8 or human TRPV1 were selected by G-418 (Geneticin; 600 μg·mL^−1), grown on 100 mm diameter Petri dishes as monolayers in minimum essential medium supplemented with non-essential amino acids, 10% fetal bovine serum and 2 mM glutamine, and maintained under 5% CO2 at 37 °C. […] After loading, cells were washed twice in Tyrode’s buffer (145 mM NaCl, 2.5 mM KCl, 1.5 mM CaCl2, 1.2 mM MgCl2, 10 mM D-glucose and 10 mM HEPES, pH 7.4), re-suspended in the same buffer, and transferred to the quartz cuvette of the spectrofluorimeter (λex = 488 nm; λem = 516 nm) (Perkin-Elmer LS50B equipped with PTP-1 Fluorescence Peltier System; Perkin-Elmer Life and Analytical Sciences, Waltham, MA, USA) under continuous stirring. […] Experiments were carried out at 22 °C by measuring cell fluorescence before and after the addition of various concentrations of test compounds. […] The potency of test compounds (EC50 values) was determined as the concentration of test substances required to produce half-maximal increases in [Ca^2+]i. […] Data are expressed as the concentration exerting a half-maximal inhibition of agonist effect (IC50). […]

T2 sequence (Q6RI86 whole entry): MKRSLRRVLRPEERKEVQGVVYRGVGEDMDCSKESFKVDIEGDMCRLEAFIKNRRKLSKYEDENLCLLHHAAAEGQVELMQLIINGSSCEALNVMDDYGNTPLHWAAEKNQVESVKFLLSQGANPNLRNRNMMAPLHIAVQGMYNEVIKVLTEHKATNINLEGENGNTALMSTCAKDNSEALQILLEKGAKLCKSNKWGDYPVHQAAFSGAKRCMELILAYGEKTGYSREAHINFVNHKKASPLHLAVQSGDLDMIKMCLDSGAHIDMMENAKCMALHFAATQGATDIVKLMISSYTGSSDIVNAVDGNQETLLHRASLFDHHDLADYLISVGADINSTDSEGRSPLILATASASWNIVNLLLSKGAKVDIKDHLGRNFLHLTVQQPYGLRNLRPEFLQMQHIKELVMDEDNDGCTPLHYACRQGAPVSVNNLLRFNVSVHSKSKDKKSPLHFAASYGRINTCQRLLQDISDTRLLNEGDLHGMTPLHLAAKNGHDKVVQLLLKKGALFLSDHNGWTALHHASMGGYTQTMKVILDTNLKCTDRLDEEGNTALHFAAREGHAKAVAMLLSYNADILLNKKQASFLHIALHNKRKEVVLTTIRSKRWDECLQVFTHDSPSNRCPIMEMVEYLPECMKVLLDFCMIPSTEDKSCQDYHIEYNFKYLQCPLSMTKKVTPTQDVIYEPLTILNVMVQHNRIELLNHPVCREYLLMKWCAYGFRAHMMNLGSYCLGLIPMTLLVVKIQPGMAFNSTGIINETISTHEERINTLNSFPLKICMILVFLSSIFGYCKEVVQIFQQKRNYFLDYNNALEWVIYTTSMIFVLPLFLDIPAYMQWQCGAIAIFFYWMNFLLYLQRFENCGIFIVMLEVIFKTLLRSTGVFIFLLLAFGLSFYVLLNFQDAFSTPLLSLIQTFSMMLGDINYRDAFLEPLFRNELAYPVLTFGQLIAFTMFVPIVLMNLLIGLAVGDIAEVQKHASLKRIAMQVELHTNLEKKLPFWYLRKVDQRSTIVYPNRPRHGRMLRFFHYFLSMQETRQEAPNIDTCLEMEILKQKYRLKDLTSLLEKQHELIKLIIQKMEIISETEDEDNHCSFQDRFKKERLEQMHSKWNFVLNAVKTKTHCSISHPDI
T1 sequence (Q8R455 whole entry): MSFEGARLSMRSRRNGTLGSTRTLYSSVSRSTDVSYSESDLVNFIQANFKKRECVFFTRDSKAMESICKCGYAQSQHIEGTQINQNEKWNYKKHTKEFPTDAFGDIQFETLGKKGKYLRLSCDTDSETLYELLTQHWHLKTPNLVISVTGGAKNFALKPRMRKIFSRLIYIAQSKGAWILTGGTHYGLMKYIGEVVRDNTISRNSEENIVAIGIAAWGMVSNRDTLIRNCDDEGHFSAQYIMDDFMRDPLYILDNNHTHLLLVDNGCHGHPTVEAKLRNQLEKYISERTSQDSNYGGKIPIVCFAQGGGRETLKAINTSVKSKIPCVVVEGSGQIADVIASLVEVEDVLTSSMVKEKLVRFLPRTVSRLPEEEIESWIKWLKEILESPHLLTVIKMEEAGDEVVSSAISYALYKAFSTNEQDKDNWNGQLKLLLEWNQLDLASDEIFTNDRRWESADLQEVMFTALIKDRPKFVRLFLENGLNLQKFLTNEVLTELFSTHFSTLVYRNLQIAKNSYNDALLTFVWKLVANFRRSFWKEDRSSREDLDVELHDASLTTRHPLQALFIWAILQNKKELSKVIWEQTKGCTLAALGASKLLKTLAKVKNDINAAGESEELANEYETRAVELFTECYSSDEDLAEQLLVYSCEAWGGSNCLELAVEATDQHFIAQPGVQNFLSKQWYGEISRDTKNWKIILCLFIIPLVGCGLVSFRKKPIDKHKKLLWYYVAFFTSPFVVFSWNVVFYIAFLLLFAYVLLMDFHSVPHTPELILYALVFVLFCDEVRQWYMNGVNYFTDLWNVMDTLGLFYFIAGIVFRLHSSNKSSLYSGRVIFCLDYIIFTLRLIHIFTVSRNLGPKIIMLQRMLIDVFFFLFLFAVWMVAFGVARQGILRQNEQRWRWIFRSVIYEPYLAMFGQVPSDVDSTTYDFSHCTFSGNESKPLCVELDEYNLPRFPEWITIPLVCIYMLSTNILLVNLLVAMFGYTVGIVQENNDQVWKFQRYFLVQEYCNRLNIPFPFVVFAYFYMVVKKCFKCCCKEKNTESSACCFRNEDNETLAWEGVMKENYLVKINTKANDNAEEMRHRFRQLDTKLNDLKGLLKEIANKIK

As to `CC(=O)N[C@H](C)[C@H](C/C=C\C/C=C\C/C=C\C/C=C\C/C=C\C/C=C\CCCCCC[C@H](OC(C)=O)[C@@H](C)NC(C)=O)OC(C)=O` [Compound 2], at rat TRPM8 channel, inhibition was half-maximal at 44.6 ± 10.1 µM (IC50).

Consider `CC(=O)N[C@H](C)[C@H](C/C=C\CC(/C=C/C=C\C/C=C\C/C=C\C/C=C\CCCCCC[C@H](OC(C)=O)[C@@H](C)NC(C)=O)OC(C)=O)OC(C)=O` (some centres unmarked) [Compound 4], for which it took 65.7 ± 8.6 µM to reach half-maximal inhibition against rat TRPM8 channel (IC50).

Turning to `C[C@@H](N)[C@@H](O)CCCCCCCCCCCCCCCCCCCCCCCC[C@H](O)[C@@H](C)N` [Compound 5], inhibition on rat TRPM8 channel was half-maximal at 6.5 ± 0.3 µM (IC50). Besides, at rat TRPA1 channel [1], the “Reduction of efficacy at TRPA1 versus parent compound 1” value was determined as 30%, the “Efficacy TRPA1 (% AITC 100 μM)” value is 69.2 ± 0.1 % AITC 100 μM and the EC50 was 2.6 ± 0.1 µM. Besides, the 50% inhibitory concentration (IC50) on rat TRPA1 channel [2] was found to be 6.5 ± 0.4 µM.

For `CC(=O)N[C@H](C)[C@H](CCCCCCCCCCCCCCCCCCCCCCCC[C@H](OC(C)=O)[C@@H](C)NC(C)=O)OC(C)=O` [Compound 6], the 50% inhibitory concentration (IC50) on rat TRPM8 channel was found to be 29 ± 0.6 µM. At rat TRPA1 channel [1], the “Efficacy TRPA1 (% AITC 100 μM)” value is listed as 100.0 ± 9.7 % AITC 100 μM and the EC50 stood at 9.7 ± 3.3 µM. At rat TRPA1 channel [2], the IC50 turned out to be 12.7 ± 0.8 µM.

With `C[C@@H](N)[C@@H](O)C/C=C\C/C=C\C/C=C\C/C=C\C/C=C\C/C=C\CCCCCC[C@H](O)[C@@H](C)N` [Leucettamol A (1), leucettamol A], the IC50 against rat TRPM8 channel amounted to 6.5 ± 0.3 µM; at rat TRPA1 channel [2], 4.7 ± 0.2 µM. In addition, at rat TRPA1 channel [1], the “Efficacy TRPA1 (% AITC 100 μM)” value was 101.9 ± 12.4 % AITC 100 μM. Further, at rat TRPA1 channel [1], the EC50 was determined as 3.7 ± 1.7 µM.

With `C[C@@H](N)[C@@H](O)C/C=C\CC(O)/C=C/C=C\C/C=C\C/C=C\C/C=C\CCCCCC[C@H](O)[C@@H](C)N` (some centres unmarked) [Leucettamol B (3), leucettamol B], 6.4 ± 1 µM corresponded to half-maximal inhibition on rat TRPM8 channel (IC50). For the same molecule, on rat TRPA1 channel [1], the “Efficacy TRPA1 (% AITC 100 μM)” value is recorded as 103.3 ± 10.6 % AITC 100 μM and the concentration for a half-maximal effect (EC50) turned out to be 5.9 ± 1.9 µM. Further, the IC50 at rat TRPA1 channel [2] worked out at 4.7 ± 0.9 µM.

As to `COc1cc(CNC(=O)CCCC/C=C/C(C)C)ccc1O` [capsaicin], the “Efficacy TRPV1 (% of 4 μM ionomycin)” value in test [3] is on record as 78.6 ± 2.4 % of 4 μM ionomycin.
